Read-outs that look alike come from different tables or passages of the source.
Legend:
Type in all cases: in vivo
[1] = tested on: Abutilon theophrasti (ABUTH); assay: Pre-emergence herbicidal action against ABUTH; conditions: Dosage column 320 g/ha (title prints 3200 g/ha); scored visually after about 3 weeks; 100% = plants have died
Source text: Seeds of monocotyledonous and dicotyledonous weed plants and crop plants are placed in plastic or organic planting pots and covered with soil. The compounds of the invention, formulated in the form of wettable powders (WP) or as emulsion concentrates (EC), are then applied to the surface of the covering soil as aqueous suspension or emulsion with addition of 0.5% additive at a water application rate equivalent to 600 l/ha. After the treatment, the pots are placed in a greenhouse and kept under good growth conditions for the trial plants. After about 3 weeks, the effect of the preparations is scored visually in comparison with untreated controls as percentages. For example, 100% activity=the plants have died, 0% activity=like control plants.
Tables A1 to A13 below show the effects of selected compounds of the general formula (I) on various harmful plants and at an application rate corresponding to 320 g/ha or lower, which were obtained by the experimental procedure mentioned above. The appendices “a”, “b” and “c” give differentiation by dosage used with otherwise the same harmful plants tested.

[2] = tested on: Alopecurus myosuroides (ALOMY); assay: Pre-emergence herbicidal action against ALOMY; conditions: scored visually after about 3 weeks, 100% = plants have died
Outline: (§1)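 Pre-emergence soil-surface spray, WP/EC formulation, 0.5% additive, 600 l/ha water, rates of 320 g/ha or lower. Greenhouse, ~3 wk. Visual score, % of untreated control (100% = plants dead, 0% = like control).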

[3] = tested on: Amaranthus retroflexus (AMARE); assay: Pre-emergence herbicidal action against AMARE; conditions: visual scoring after about 3 weeks vs untreated controls
Outline: as §1

Avena fatua (AVEFA) [4] = assay: Pre-emergence herbicidal action against AVEFA; conditions: visual scoring after about 3 weeks vs untreated controls
Outline: as §1

[5] = tested on: Echinochloa crus-galli (ECHCG); assay: Pre-emergence herbicidal action against ECHCG
Outline: as §1

Lolium rigidum (LOLRI) [6] = assay: Pre-emergence herbicidal action against LOLRI
Outline: as §1

[7] = tested on: Matricaria inodora (MATIN); assay: Pre-emergence herbicidal action against MATIN
Outline: as §1

[8] = tested on: Pharbitis purpurea (PHBPU); assay: Pre-emergence herbicidal action against PHBPU
Outline: as §1

[9] = tested on: Polygonum convolvulus (POLCO); assay: Pre-emergence herbicidal action against POLCO
Outline: as §1

Setaria viridis (SETVI) [10] = assay: Pre-emergence herbicidal action against SETVI
Outline: as §1

[11] = tested on: Verconica persica (VERPE); assay: Pre-emergence herbicidal action against VERPE
Outline: as §1

Viola tricolor (VIOTR) [12] = assay: Pre-emergence herbicidal action against VIOTR
Outline: as §1

[13] = tested on: Abutilon theophrasti (ABUTH); assay: Post-emergence herbicidal action against ABUTH; conditions: visual rating about 3 weeks after treatment vs untreated controls (100% = plants have died, 0% = like control plants)
Outline: (§2)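 Greenhouse plants sprayed at the one-leaf stage, 2–3 weeks after sowing, with WP or EC formulations plus 0.5% additive at 600 l/ha water. Activity rated visually after about 3 weeks versus untreated controls (100% = dead, 0% = like control), at 320 g/ha or lower.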

[14] = tested on: Alopecurus myosuroides (ALOMY); assay: Post-emergence herbicidal action against ALOMY; conditions: visual rating about 3 weeks after treatment vs untreated controls (100% = plants have died, 0% = like control plants)
Outline: as §2

[15] = tested on: Amaranthus retroflexus (AMARE); assay: Post-emergence herbicidal action against AMARE
Outline: as §2

Avena fatua (AVEFA) [16] = assay: Post-emergence herbicidal action against AVEFA; conditions: visual rating about 3 weeks after treatment
Outline: as §2

[17] = tested on: Echinochloa crus-galli (ECHCG); assay: Post-emergence herbicidal action against ECHCG
Outline: as §2

Lolium rigidum (LOLRI) [18] = assay: Post-emergence herbicidal action against LOLRI
Outline: as §2

[19] = tested on: Pharbitis purpurea (PHBPU); assay: Post-emergence herbicidal action against PHBPU
Outline: as §2

Setaria viridis (SETVI) [20] = assay: Post-emergence herbicidal action against SETVI
Outline: as §2

[21] = tested on: Verconica persica (VERPE); assay: Post-emergence herbicidal action against VERPE
Outline: as §2

Oryza sativa (ORYSA) = conditions: crop plant compatibility
Outline: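 Effects were read visually as % versus untreated controls (0% = no effect, 100% = death) about 3 weeks post-treatment. Application was a post-emergence spray at the one-leaf stage of WP/EC formulations with 0.5% additive at 600 l/ha. Different dosages are denoted a, b and c.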

Viola tricolor (VIOTR) [22] = assay: Post-emergence herbicidal action against VIOTR
Outline: as §2

[23] = tested on: Polygonum convolvulus (POLCO); assay: Post-emergence herbicidal action against POLCO; conditions: dosage 320 g/ha
Outline: as §2

[24] = 80 g/ha, visual rating about 3 weeks after treatment vs untreated controls (100% = plants have died, 0% = like control plants)
[25] = 80 g/ha, effect in comparison to untreated controls

| Compound | Pre-emergence action against ABUTH [1] | Pre-emergence action against ALOMY ([2]; 80 g/ha) | Pre-emergence action against ALOMY ([2]; 320 g/ha) | Pre-emergence action against AMARE in % ([3]; 80 g/ha) | Pre-emergence action against AMARE in % ([3]; 320 g/ha) | Pre-emergence action against AVEFA in % (Avena fatua (AVEFA) [4]; 320 g/ha) | Pre-emergence action against ECHCG in % ([5]; dosage 320 g/ha) | Pre-emergence action against LOLRI in % (Lolium rigidum (LOLRI) [6]; dosage 80 g/ha) | Pre-emergence action against LOLRI in % (Lolium rigidum (LOLRI) [6]; dosage 320 g/ha) | Pre-emergence action against PHBPU in % ([8]; dosage 320 g/ha) | Pre-emergence action against POLCO in % ([9]; dosage 80 g/ha) | Pre-emergence action against POLCO in % ([9]; dosage 320 g/ha) | Pre-emergence action against VERPE in % ([11]; dosage 320 g/ha) | Pre-emergence action against VIOTR in % (Viola tricolor (VIOTR) [12]; 320 g/ha, Viola tricolor) | Pre-emergence action against VIOTR in % (Viola tricolor (VIOTR) [12]; dosage 80 g/ha) | Post-emergence action against ECHCG in % ([17]; dosage 80 g/ha) | Post-emergence action against LOLRI in % (Lolium rigidum (LOLRI) [18]; dosage 80 g/ha) | Post-emergence action against PHBPU in % ([19]; dosage 80 g/ha) | Post-emergence action against SETVI in % (Setaria viridis (SETVI) [20]; dosage 80 g/ha) | Post-emergence action against VERPE in % ([21]; dosage 80 g/ha) | also measured |
| --- | --- | --- | --- | --- | --- | --- | --- | --- | --- | --- | --- | --- | --- | --- | --- | --- | --- | --- | --- | --- | --- |
| COC(=O)[C@@H](C)Oc1nn(-c2ccccn2)c(-c2cncc(F)c2)c1Br [Example I-83] | 80% | 90% | 100% | 90% | 100% | 90% | 100% | 100% | 100% | 90% | 80% | 90% | 100% | 100% | 100% | 90% | 90% | 90% | 90% | 80% | Pre-emergence action against AVEFA in % (Avena fatua (AVEFA) [4]; 80 g/ha): 80%; Pre-emergence action against MATIN in % ([7]; dosage 80 g/ha): 90%; Pre-emergence action against MATIN in % ([7]; dosage 320 g/ha): 100%; Pre-emergence action against PHBPU in % ([8]; dosage 80 g/ha): 80%; Pre-emergence action against SETVI in % (Setaria viridis (SETVI) [10]; dosage 80 g/ha): 90%; Pre-emergence action against SETVI in % (Setaria viridis (SETVI) [10]; dosage 320 g/ha): 100%; Pre-emergence action against VERPE in % ([11]; dosage 80 g/ha): 90%; Post-emergence action against ABUTH in % ([13]; 80 g/ha): 90%; Post-emergence action against ALOMY in % ([14]; 80 g/ha): 100%; Post-emergence action against AMARE in % [15, 24]: 90%; Post-emergence action against AVEFA in % (Avena fatua (AVEFA) [16]; 80 g/ha): 100%; Post-emergence action against ORYSA in % (Oryza sativa (ORYSA); 20 g/ha, effect vs untreated controls): 0%; Post-emergence action against ORYSA in % (Oryza sativa (ORYSA); [25]): 20% |
| CCOC(=O)[C@@H](C)Oc1nn(-c2nc(F)ccc2F)c(-c2cncc(F)c2)c1Br [Example I-388] | 90% | 80% | 100% | 90% | 100% | 90% | 100% | 80% | 100% | 90% | 90% | 90% | 100% | 100% | 100% | 90% | 80% | 80% | 90% | 80% | Pre-emergence action against ECHCG in % ([5]; dosage 80 g/ha): 80%; Pre-emergence action against MATIN in % ([7]; dosage 80 g/ha): 90%; Pre-emergence action against MATIN in % ([7]; dosage 320 g/ha): 90%; Pre-emergence action against PHBPU in % ([8]; dosage 80 g/ha): 90%; Pre-emergence action against SETVI in % (Setaria viridis (SETVI) [10]; dosage 80 g/ha): 90%; Pre-emergence action against SETVI in % (Setaria viridis (SETVI) [10]; dosage 320 g/ha): 100%; Pre-emergence action against VERPE in % ([11]; dosage 80 g/ha): 90%; Post-emergence action against ABUTH in % ([13]; 320 g/ha): 80%; Post-emergence action against ALOMY in % ([14]; 320 g/ha): 80%; Post-emergence action against AVEFA in % (Avena fatua (AVEFA) [16]; 320 g/ha): 80%; Post-emergence action against ECHCG in % ([17]; dosage 320 g/ha): 90%; Post-emergence action against LOLRI in % (Lolium rigidum (LOLRI) [18]; dosage 320 g/ha): 80%; Post-emergence action against PHBPU in % ([19]; dosage 320 g/ha): 100%; Post-emergence action against SETVI in % (Setaria viridis (SETVI) [20]; dosage 320 g/ha): 90%; Post-emergence action against VERPE in % ([21]; 320 g/ha, VERPE): 80%; Post-emergence action against VIOTR in % (Viola tricolor (VIOTR) [22]; 320 g/ha): 80% |
| COC(=O)CCOC(=O)[C@@H](C)Oc1nn(-c2ccccn2)c(-c2ccc(F)nc2)c1Cl [Example I-340] | 80% | – | 100% | 90% | 100% | 90% | 100% | 100% | 100% | 80% | 80% | 90% | 100% | 100% | 100% | 80% | 90% | 90% | 80% | 80% | Pre-emergence action against AVEFA in % (Avena fatua (AVEFA) [4]; 80 g/ha): 80%; Post-emergence action against ABUTH in % ([13]; 320 g/ha): 80%; Post-emergence action against ALOMY in % ([14]; 80 g/ha): 90%; Post-emergence action against ALOMY in % ([14]; 320 g/ha): 100%; Post-emergence action against AMARE in % [15, 24]: 80%; Post-emergence action against AMARE in % ([15]; 320 g/ha, visual rating about 3 weeks after treatment): 90%; Post-emergence action against AVEFA in % (Avena fatua (AVEFA) [16]; 80 g/ha): 90%; Post-emergence action against AVEFA in % (Avena fatua (AVEFA) [16]; 320 g/ha): 90%; Post-emergence action against ECHCG in % ([17]; dosage 320 g/ha): 90%; Post-emergence action against LOLRI in % (Lolium rigidum (LOLRI) [18]; dosage 320 g/ha): 90%; Post-emergence action against PHBPU in % ([19]; dosage 320 g/ha): 90%; Post-emergence action against POLCO in % [23]: 90%; Post-emergence action against SETVI in % (Setaria viridis (SETVI) [20]; dosage 320 g/ha): 90%; Post-emergence action against VERPE in % ([21]; 320 g/ha, VERPE): 90%; Post-emergence action against VIOTR in % (Viola tricolor (VIOTR) [22]; 80 g/ha): 90%; Post-emergence action against VIOTR in % (Viola tricolor (VIOTR) [22]; 320 g/ha): 90%; Post-emergence action against ORYSA in % (Oryza sativa (ORYSA); [25]): 0%; Post-emergence action against ORYSA in % (Oryza sativa (ORYSA); 320 g/ha, effect in comparison to untreated controls): 0% |

Reference: patent US20240041042A1, “1-(PYRIDYL)-5-AZINYLPYRAZOLE DERIVATIVES, AND THEIR USE FOR CONTROL OF UNDESIRED PLANT GROWTH” (Bayer Aktiengesellschaft, priority 2020, published 2024)
